Measured values published in patent US11708422B2, “Mitigation of lung injury” (The Trustees Of The University Of Pennsylvania, priority 2016, dated 2023).
“Also recorded” adds a separate entry of the source.

Tests used:
[1] = system: mice treated with bleomycin to induce lung injury; conditions: relative to untreated mice; cited from earlier work
RAEC monolayers [2] = assay: TJ protein dissociation from ZO-1 (co-IP with ZO-1 as bait) in stretched RAEC monolayers; type: cell-based, rat; conditions: RAECs, 10 min of cyclic stretch
Source text: In the extracellular domain, the TJ is composed of claudins and occludin bound to TJ proteins of neighboring cells. In the intracellular domain, the claudins and occludin bind to actin via ZO-1. […] The present study tests the hypothesis that TJ dissociation between the ZO1 and the claudins and occludin is the primary causal mechanism for HER2-HER3 mediated barrier disruption. As preliminary evidence, RAEC monolayers (N=4) that were pretreated with NRG1 cleavage inhibitor TAPI-2, HER2 inhibitor AG825, or vehicle (VC) were stretched. […] The present study also confirmed stretch-induced TJ protein dissociation in lung slices.
(§1) each outcome measure, at each timepoint), at 0, 25, 37% ASA. To assess the effects of a longer stretch duration, RAEC monolayers from additional isolations (n=7 rats) were also subjected to cyclic stretch ASA of 0% (control) or 25% for 6 hrs. For every isolation, functional relationships will be confirmed in unstretched and stretched control groups treated with AG825 (HER2 inhibitor), anti-HER3ab (HER3 inhibitor), and tempol or tiron (superoxide scavenger), and compared with unstretched RAEC and PCLS treated with PMA to activate HER3 via NRG1 shedding as a positive control. In RAECs, results were compared to stretched and unstretched monolayers with separate treatments to evaluate downstream signaling pathway inhibition of ERK (U0126), PI3K (Wortmannin), Rac1 (EHT-1864 and ERK 1/2 siRNA [97] and LIMK1 (BMS4). Additional groups had NRG1 expression decreased by overexpressing miRNA-15b (negative regulator of NRG1), using scrambled oligonucleotide as a negative control. As a validation of or hierarchical platform, TJ expression, phosphorylation and arrangement results in PCLS were compared with RAECs. In all groups, monolayers were assigned to one of four quantitative outcome evaluations: alveolar paracellular permeability via BODIPY-oubain and streptavidin-FITC methods (see INNOVATION—Appendix I), TJ and actin arrangement by fixing RAECs and PCLSs for qualitative immunofluorescence, total and phosphorylated TJ content via Western blot, or ZO-1-bound TJ proteins by isolating protein for co-IP using ZO-1 as bait, followed by Western blotting for occludin, claudins 4, 7, and 18, and F-actin in the ZO-1 protein fraction.

RAEC monolayers [3] = assay: Stretch-associated permeability of RAEC monolayers (cyclic stretch); type: cell-based, rat; conditions: 10 min of stretch; for stretch-associated permeability: pretreated, vs vehicle controls
Experimental: As evidence that NRG1, HER2, and HER3 regulate stretch-associated increases in permeability, RAEC monolayers (N≥3-7/group) were exposed to 10 min of stretch, and compared vehicle controls (VC, black bars, FIG. 16—Appendix I) with those pretreated microRNA miR15-b to reduce NRG1 expression (FIG. 7, APPROACH—Appendix I), TAPI2 to inhibit ADAM17 and NRG1 cleavage (diagonal striped bars, FIG. 16—Appendix I), HER3 mAb to inhibit NRG1 binding (dark gray bars), or AG825 (white bars) to inhibit HER2 activation.
as §1, with “For every isolation, functional relationships will be confirmed in unstretched and stretched control groups treated with AG825 (HER2 inhibitor), anti-HER3ab (HER3 inhibitor), and tempol or tiron (superoxide scavenger), and compared with unstretched RAEC and PCLS treated with PMA to activate HER3 via NRG1 shedding as a positive control.” left out

rodent model of VILI = assay: In vivo rodent model of VILI (large tidal volume mechanical ventilation); design: species or system rat; conditions: rats, Vt=25 ml/kg for 4 hrs, PEEP=0, AG825 1.67 mg/kg/day IP, 3 days
Experimental: Ventilated rats received one of […] treatments, intratracheal TAPI2 (used in vivo to inhibit NRG1 sheddase ADAM17) or […] AG825 or intravenous trastuzumab (to inhibit HER2), or will serve as ventilated vehicle-treated controls. Treatment windows were varied from 3 days prior ventilation to concurrent application, to identify an optimal, clinically-relevant therapeutic dose and timing. Dynamic compliance will be measured every 30 min. All animals were injected with FITC-albumin prior to ventilation, and alveolar permeability assessed prior to sacrifice by quantifying fluorescence of bronchoalveolar lavage (BAL) fluid normalized to serum fluorescence. Lungs were formalin-fixed after BAL, and hematoxylin/eosin stained sections were evaluated for hyaline membrane formation, interstitial edema, margination and infiltration of neutrophils, as well as intra-alveolar and perivascular hemorrhage. Compliance, permeability, and lung histology were compared across groups.

Structure (SMILES) | alveolar protein content [1] | TJ dissociation with stretch (RAEC monolayers [2]) | levels of TJ bound to ZO-1 after stretch vs unstretched controls (RAEC monolayers [2]) | stretch-associated permeability (RAEC monolayers [3]) | barrier properties vs. unstretched VC (RAEC monolayers [3]) | protection against VILI (rodent model of VILI) | lung compliance (rodent model of VILI; 1.67 mg/kg/day) | permeability (barrier properties) in vivo (rodent model of VILI; 1.67 mg/kg/day)
CC(C)C[C@H](CC(=O)NO)C(=O)N[C@H](C(=O)N[C@@H](C)C(=O)NCCN)C(C)(C)C [TAPI2] | decreased alveolar protein content | reduces stretch-induced tight junction dissociation; also recorded: prevented | equal or greater after stretch than unstretched controls | significantly reduced stretch-associated permeability |  |  |  | 
COc1cc(/C=C(\C#N)C(N)=O)cc(CSc2nc3ccccc3s2)c1O [AG825] |  | reduces stretch-induced tight junction dissociation; also recorded: prevented | equal or greater after stretch than unstretched controls | significantly reduced stretch-associated permeability | maintained barrier properties at unstretched levels | dramatically protects against VILI | preserves lung compliance; also recorded: significant improvements in lung compliance | preserves barrier properties/moderates unwanted permeability; also recorded: significant improvements in lung compliance and permeability
